The values that follow come from ChEMBL document CHEMBL1149577, “Rational design of 7-arylquinolines as non-competitive metabotropic glutamate receptor subtype 5 antagonists” (Bioorg Med Chem Lett, 2007).

Some results are limits rather than exact numbers.

The target in the first experiment is T1, Metabotropic glutamate receptor 5 (Rattus norvegicus, UniProt P31424). As to the kind of experiment: Displacement of [3H]MPEP from mGlu5 receptor in rat brain. Format: tissue-based. A general note: In a radioligand displacement assay an active substance lowers the binding of a labelled ligand.
T1 sequence (P31424 whole entry): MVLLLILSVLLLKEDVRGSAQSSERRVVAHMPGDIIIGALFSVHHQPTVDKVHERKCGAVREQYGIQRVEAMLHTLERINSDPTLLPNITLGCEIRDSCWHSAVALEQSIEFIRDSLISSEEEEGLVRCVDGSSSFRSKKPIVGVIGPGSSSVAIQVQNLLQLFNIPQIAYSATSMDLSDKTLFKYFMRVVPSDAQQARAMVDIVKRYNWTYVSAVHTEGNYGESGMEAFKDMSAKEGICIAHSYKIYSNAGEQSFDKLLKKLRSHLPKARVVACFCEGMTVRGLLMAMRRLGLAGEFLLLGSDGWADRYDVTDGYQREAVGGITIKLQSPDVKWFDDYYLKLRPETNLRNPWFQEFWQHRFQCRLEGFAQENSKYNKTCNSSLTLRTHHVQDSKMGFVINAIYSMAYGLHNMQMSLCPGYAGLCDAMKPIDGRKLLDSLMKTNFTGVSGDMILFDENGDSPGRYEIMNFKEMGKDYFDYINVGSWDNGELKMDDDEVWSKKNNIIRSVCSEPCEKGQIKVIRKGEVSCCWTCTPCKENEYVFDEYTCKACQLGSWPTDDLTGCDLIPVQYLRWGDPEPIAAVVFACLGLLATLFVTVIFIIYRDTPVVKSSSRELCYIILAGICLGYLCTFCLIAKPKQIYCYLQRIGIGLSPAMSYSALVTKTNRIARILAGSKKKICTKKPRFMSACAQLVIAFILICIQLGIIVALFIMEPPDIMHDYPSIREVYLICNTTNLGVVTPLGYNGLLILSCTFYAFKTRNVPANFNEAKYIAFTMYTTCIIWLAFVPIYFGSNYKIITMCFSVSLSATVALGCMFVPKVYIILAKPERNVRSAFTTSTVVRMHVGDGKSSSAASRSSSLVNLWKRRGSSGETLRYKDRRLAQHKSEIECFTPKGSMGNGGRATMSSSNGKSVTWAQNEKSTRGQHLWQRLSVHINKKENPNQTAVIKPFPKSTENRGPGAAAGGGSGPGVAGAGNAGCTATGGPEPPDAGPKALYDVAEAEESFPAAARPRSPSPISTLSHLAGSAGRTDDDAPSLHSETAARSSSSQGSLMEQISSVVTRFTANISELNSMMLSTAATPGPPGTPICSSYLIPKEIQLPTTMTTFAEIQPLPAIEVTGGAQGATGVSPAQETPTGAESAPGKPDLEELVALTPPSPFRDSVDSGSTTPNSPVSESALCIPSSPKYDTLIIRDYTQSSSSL
For orientation: Ki means the equilibrium dissociation constant of an inhibitor or competing ligand from its target. High values mean weaker binding, low ones tighter binding. Regarding `Cc1ccc2ccc(-c3cc(F)cc(C#N)c3)cc2n1`, the Ki worked out at 0.022 µM.

Consider `Cc1ccc2ccc(-c3cccc(C#N)c3)cc2n1`, for which the affinity, expressed as Ki, was 0.072 µM.

The target in the next experiment is T1, Metabotropic glutamate receptor 5. Kind of experiment: Activity at rat mGlu5 receptor expressed in CHO cells assessed as inhibition of quisqualate-stimulated calcium mobilization by FLIPR assay. The format is functional, cell-based. On the technique in general: A change in cytosolic calcium serves as a functional read-out for many receptors and channels.
One may read the IC50 as the concentration at which inhibition is half-maximal. Turning to `Cc1ccc2ccc(-c3cncc(C#N)c3)cc2n1`, the IC50 came to 0.023 µM.

For the compound `Cc1ccc2ccc(-c3ccccc3)cc2n1`, the IC50 came to 9 µM.

Regarding `Cc1ccc2ccc(-c3cccc(F)c3)cc2n1`, the IC50 stood at 1.8 µM.

Turning to `COCc1cc(C#N)cc(-c2ccc3ccc(C)nc3c2)c1`, the IC50 worked out at 0.002 µM.

Consider `Cc1ccc2ccc(-c3cccc(C(F)(F)F)c3)cc2n1`, for which the half-inhibitory concentration (IC50) is above 10 µM.

With `COc1cccc(-c2ccc3ccc(C)nc3c2)c1`, the IC50 came to 0.86 µM.

For `COCc1cccc(-c2ccc3ccc(C)nc3c2)c1`, the IC50 turned out to be 5.8 µM.

For `CCOc1cc(C#N)cc(-c2ccc3ccc(C)nc3c2)c1`, the IC50 stood at 0.017 µM.

For the compound `Cc1ccc2ccc(-c3cc(O)cc(C#N)c3)cc2n1`, the IC50 amounted to 0.36 µM.

Turning to `Cc1ccc2ccc(-c3cc(Cl)cc(C#N)c3)cc2n1`, the IC50 is 0.0014 µM.

Take `Cc1ccc2ccc(-c3ccccc3C#N)cc2n1`: the IC50 is 9.8 µM.

Regarding `Cc1ccc2ccc(-c3cccc(C(N)=O)c3)cc2n1`, the IC50 was above 10 µM.

Consider `Cc1ccc2ccc(-c3cc(F)cc(C#N)c3)cc2n1`, for which the IC50 was 0.0008 µM.

Regarding `Cc1ccc2ccc(-c3cc(Br)cc(C#N)c3)cc2n1`, the IC50 came to 0.013 µM.

Take `Cc1cc(C#N)cc(-c2ccc3ccc(C)nc3c2)c1`: the IC50 was 0.0016 µM.

Turning to `COc1ccc(-c2ccc3ccc(C)nc3c2)cc1`, the IC50 was determined as 16 µM.

Take `Cc1ccc2ccc(-c3cccc(OC(F)(F)F)c3)cc2n1`: the IC50 was above 10 µM.

In the case of `CC(=O)c1cccc(-c2ccc3ccc(C)nc3c2)c1`, the IC50 worked out at 4.76 µM.

Regarding `Cc1ccc2ccc(-c3cccc(CC#N)c3)cc2n1`, the IC50 came out at 0.43 µM.

For the compound `Cc1ccc2ccc(-c3cc(C#N)cc(OC(F)(F)F)c3)cc2n1`, the IC50 was found to be 0.075 µM.

As to `Cc1ccc2ccc(-c3cccc(O)c3)cc2n1`, the IC50 was 19 µM.

Consider `Cc1ccc2ccc(-c3cc(C#N)cc(OC(C)C)c3)cc2n1`, for which the IC50 stood at 0.31 µM.

As to `CCS(=O)(=O)c1cc(C#N)cc(-c2ccc3ccc(C)nc3c2)c1`, the IC50 was determined as 1.09 µM.

Turning to `COc1cc(C#N)cc(-c2ccc3ccc(C)nc3c2)c1`, the IC50 came out at 0.0024 µM.

In the case of `Cc1ccc2ccc(-c3cccc(CO)c3)cc2n1`, the IC50 stood at 8.7 µM.

Turning to `CCSc1cc(C#N)cc(-c2ccc3ccc(C)nc3c2)c1`, the IC50 amounted to 0.072 µM.

Consider `Cc1cccc(-c2ccc3ccc(C)nc3c2)c1`, for which the IC50 was 3.4 µM.

On to `Cc1ccc2ccc(-c3cccnc3)cc2n1`, for which the IC50 came to 0.51 µM.

For `Cc1ccc2ccc(-c3cc(C#N)cc(C#N)c3)cc2n1`, the IC50 amounted to 0.002 µM.

As to `COCCOc1cc(C#N)cc(-c2ccc3ccc(C)nc3c2)c1`, the IC50 stood at 0.082 µM.

Regarding `Cc1ccc2ccc(-c3cccc(Cl)c3)cc2n1`, the IC50 stood at 14 µM.

`COc1ccccc1-c1ccc2ccc(C)nc2c1`: the IC50 is 4.2 µM.

For `Cc1ccc2ccc(-c3ccc(C#N)cc3)cc2n1`, the IC50 is above 10 µM.

Consider `Cc1ccc2ccc(-c3cccc(C#N)c3)cc2n1`, for which the IC50 came to 0.0077 µM.

As to `Cc1ccc2ccc(-c3cc(C#N)cc(OCC(C)C)c3)cc2n1`, the IC50 was 12 µM.

The next experiment concerns Rattus norvegicus. As to the kind of experiment: Anxiolytic activity in thirsty naive rat assessed as shock episodes at 10 mg/kg, po by Vogel assay relative to control. Format: functional.
Turning to `Cc1cccc(C#Cc2ccccc2)n1`, the Activity stood at 80%.

For the compound `Cc1ccc2ccc(-c3cc(F)cc(C#N)c3)cc2n1`, the Activity is 100%.
